Source: PubChem BioAssay AID1645848
Values after ≈ are worked out from the molar mass of the structure shown.

Conditions: buffer; pH 7.4; 6.0 h; 150.0 µM

solubility kinetic [µg/mL] | SMILES
< 1 | CC(=O)c1ccc(N2CCN(c3ccc(NC(=O)c4ccc(F)cc4)cc3C(=O)O)CC2)cc1
2.48 (≈ 5.43 µM) | O=C(NCc1ccccc1)C1CCN(c2nc(-c3ccc(Br)cc3)cs2)CC1
2.32 (≈ 6.09 µM) | Cc1ccnc(NC(=S)N2CCN(c3cc(Cl)cc(Cl)c3)CC2)c1
44.7 (≈ 99 µM) | CSc1ccccc1N1CCN(CCCCCC(=O)NC2CCCc3ccccc32)CC1 (stereo unspecified)
< 1 | COc1cc(-c2nc(Nc3ccc(F)c(F)c3)c3ccccc3n2)c(F)cn1
< 1 | O=S(=O)(Nc1cccc2ccccc12)c1ccc(NCc2ccc(Br)cc2O)cc1
< 1 | FC(F)(F)c1cccc(N2CCN(C(=S)Nc3nccc4ccccc34)CC2)c1
> 55 | O=C(c1ccc2c(c1)ncn2-c1cccc(C(F)(F)F)c1)N1CCCCC1
< 1 | CC(C)(C)n1nc(-c2ccc(Cl)cc2)c2c(N)ncnc21
< 1 | c1ccc2c(Nc3ccc4nc[nH]c4c3)nc(-c3ccncc3)nc2c1
< 1 | CNc1oc(-c2cccc3ccccc23)nc1C#N
20.4 (≈ 56.2 µM) | COc1cccc(-c2nc(-c3c(C)noc3C)cc3[nH]c(C)cc23)c1OC
< 1 | Cc1ccccc1-c1nc(NCc2ccc(-c3cccnc3)cc2)c2ccccc2n1
0.228 (≈ 0.538 µM) | O=C(Cc1ccc2ccccc2c1)Nc1ccc(S(=O)(=O)Nc2nccs2)cc1
34.9 (≈ 107 µM) | CN(C)c1cccc(-c2cnc(N3CCC(C(N)=O)CC3)nc2)c1
6.4 (≈ 16.2 µM) | Cc1ccnc(NC(=S)N2CCC(Nc3cccc(C(F)(F)F)c3)CC2)c1
< 1 | Cc1cc(-c2nc(Nc3ccc(F)c(F)c3)c3ccccc3n2)ccn1
< 1 | COc1ccccc1NC(=O)c1oc2ccccc2c1NC(=O)Cc1cccs1
< 1 | Fc1ccc(Nc2nc(-c3ccnc(C(F)(F)F)c3)nc3ccccc23)cc1F
> 55 | COc1cc(OC)c2c(=O)[nH]c(-c3cc(C)c(OCCO)c(C)c3)nc2c1
8.24 (≈ 22.4 µM) | NC(=O)C1CCN(c2nnc(-c3ccc(Br)cc3)s2)CC1
37 (≈ 86 µM) | CCOC(=O)C1CCN(C(=O)C(C)(C)NC(=O)Nc2ccc(Cl)cc2Cl)CC1
< 1 | CC1=C(C(=O)Nc2ccccc2Cl)C(c2ccccc2Br)N=C(Nc2nc3ccccc3o2)N1 (stereo unspecified)

solubility kinetic [µg/mL] | SMILES
< 1 | COC(=O)CSc1nc(-c2ccccc2)cc(-c2ccco2)c1C#N
1.42 (≈ 3.27 µM) | O=S(=O)(Nc1ccccc1)c1ccc(NCc2ccc(Br)cc2O)cc1
28.1 (≈ 70.4 µM) | COc1cc(-c2ccnc3c2c(C)nn3-c2ccc(C(F)(F)F)cc2)ccc1O
2.27 (≈ 5.47 µM) | CCc1ccc2ncc(C(=O)c3ccc(C)c(C)c3)c(N3CCC(C(N)=O)CC3)c2c1
46.5 (≈ 118 µM) | CN(C)c1cccc(-c2c3c(=O)n(-c4ccccc4Cl)[nH]c3cc(=O)n2C)c1
3 (≈ 6.59 µM) | CCOc1ccc(NC(=O)c2cccc(-n3cccc3)c2)cc1S(=O)(=O)N1CCOCC1
< 1 | Cc1ccc(S(=O)(=O)Nc2cc(Br)ccc2C(=O)Nc2nc(-c3ccccc3)cs2)cc1
< 1 | Cn1cc(-c2nc(Nc3ccc(F)c(F)c3)c3ccccc3n2)cn1
< 1 | CC[C@@H](C)Nc1cc(C(=O)NC2CC3CCC(C2)N3c2ccc(C(=O)C3CC3)cn2)c(C)cc1C(N)=O (stereo partly specified)
36 (≈ 111 µM) | CCc1ccccc1OC[C@@H](O)CN[C@H]1CCCc2ccccc21
< 1 | N=c1c2c(ccn1CCc1ccccc1)Oc1ccc3ccccc3c1C2c1ccccc1 (stereo unspecified)
40.5 (≈ 104 µM) | CC[S+](=O)([O-])Nc1ccccc1C(=O)Nc1nc(-c2ccccc2)cs1
1.06 (≈ 2.48 µM) | COc1ccc(C2c3[nH]c4ccc(OC)cc4c3CCN2C(=O)Nc2ccccc2)cc1 (stereo unspecified)
< 1 | CC1=C(C(=O)Nc2ccccc2C)C(c2ccccc2Br)N=C(Nc2nc3ccccc3o2)N1 (stereo unspecified)
6.98 (≈ 16.9 µM) | COCCNC(=O)c1ccc(Cn2c(=S)[nH]c3cc4c(cc3c2=O)OCO4)cc1
2.73 (≈ 5.63 µM) | CSc1ccc(/C=C/c2nc3ccccc3n2S(=O)(=O)c2ccc(Br)cc2)cc1
< 1 | CC(=O)Nc1ccc(C(=O)Nc2ccc3c(c2)N(C2CCCC2)C(=O)c2ccccc2S3)cc1
< 1 | COc1ccc(NC(=O)c2[nH]c(C)cc2C)cc1S(=O)(=O)Nc1ccc(Br)cc1
3.32 (≈ 9.35 µM) | CCn1nnnc1Sc1ncnc2scc(-c3ccc(C)cc3)c12
< 1 | COc1ccc(N(C)C(=O)c2cc3c(s2)-c2ccccc2OC3)cc1
> 58 | O=c1[nH]c(N2CCOCC2)nc2c1CCN(Cc1ccc(Cl)cc1F)CC2
< 1 | O=[S+]([O-])(Nc1cnc2ccccc2c1)c1ccc(NCc2ccc(Cl)cc2O)cc1
28.3 (≈ 50.3 µM) | COC(C)(C)CCn1nc(Nc2c(C)cccc2C)c2cnc(Nc3ccc(OCCN4CCCC4)c(F)c3)nc21

solubility kinetic [µg/mL] | SMILES
< 1 | C=CC(=O)Nc1cccc(Oc2nc(Nc3ccc(N4CCN(C)CC4)cc3)ncc2Cl)c1
< 1 | CC1=C(C(=O)Nc2ccccc2)C(c2ccccc2Br)N=C(Nc2nc3ccccc3o2)N1 (stereo unspecified)
< 1 | Cc1ccc(S(=O)(=O)Nc2ccc(C)cc2C(=O)Nc2nc(-c3ccccc3)cs2)cc1
< 1 | CC1(C)CC2CC(C)(CN2S(=O)(=O)c2ccc(C(=O)Nc3cccc(S(=O)(=O)N4CCOCC4)c3)cc2)C1 (stereo unspecified)
1.06 (≈ 2.24 µM) | CC1CCC(NC(=O)c2ccc3c(c2)N(Cc2ccccc2F)C(=O)c2ccccc2S3)CC1 (stereo unspecified)
> 68 | CC1=C[C@@H](CNCc2cccnc2)[C@H](C(C)C)C[C@H]1Cc1nnc(-c2ccc([N+](=O)[O-])cc2)o1
> 63 | CCOc1ccc(CCNC(=O)c2cc3sccc3n2CCN(C)C)cc1OCC
< 1 | Cc1ccc(S(=O)(=O)Nc2ccccc2C(=O)Nc2nc(-c3ccccc3)cs2)cc1
8.3 (≈ 25.2 µM) | Oc1ccc(CNc2ccccc2Br)c2cccnc12
> 64 | O=C(Cc1ccc(Cl)c(Cl)c1)Nc1ccc(S(=O)(=O)Nc2cncnc2)cc1
3.07 (≈ 11.3 µM) | O=C1Nc2ccccc2/C1=C/c1ccnc2ccccc12
< 1 | c1ccc(-c2ccc(CNc3nc(-c4ccccn4)nnc3-c3ccccc3)cc2)cc1
> 75 | C[C@@H]1CN(CC(=O)N2CC(C)(C)c3ncc(Cc4ccc(F)cc4)cc32)[C@@H](CN2CCOC[C@H]2C)CN1
< 1 | CC(Nc1ncnc2c1cnn2-c1cccc(Cl)c1)c1ccccc1 (stereo unspecified)
< 1 | O=C(Nc1nc(-c2ccccc2)cs1)c1ccncc1NS(=O)(=O)c1ccc(F)cc1Cl
1.32 (≈ 3.34 µM) | O=S(=O)(Nc1nccs1)c1ccc(NCc2ccc(Cl)cc2O)cc1
< 1 | COc1cccc(CNc2ccc(S(=O)(=O)Nc3ccc4ccccc4c3)cc2)c1O
> 56 | Cc1ccccc1C(=O)NC1CCN(c2ccc3nnc(C4CC4)n3n2)CC1
41.4 (≈ 124 µM) | Cc1cccc(C)c1C(=O)Nc1cccc([S+](=O)([O-])N(C)C)c1
< 1 | CCOc1ccc(CCNC(=O)c2cc3ccccc3n2Cc2ccc(Cl)c(F)c2)cc1OCC
> 67 | COc1ccc(C2c3c(oc4ccc(Cl)cc4c3=O)C(=O)N2CCCN(C)C)cc1OC (stereo unspecified)
8.35 (≈ 29.5 µM) | CCN(CC)CCOc1ccc(Cc2ccccc2)cc1

SMILES | solubility kinetic [µg/mL]
CCOc1ccc(CCNC(=O)c2cc3ccccc3n2Cc2cccc(C)n2)cc1OCC | < 1
N[C@@H](Cc1cc(Br)c(O)c(Br)c1)C(=O)O | > 50
CCC(CC)c1cc([C@H]2CN3CC[C@H]2C[C@@H]3CNC(=O)COc2ccccc2)nc(-c2ccncc2)n1 | > 74
